What was measured:
[1] = system: TtT-GF mouse folliculostellate pituitary cell nuclei; test: Quantitative DNA Methylation Imaging of nuclear MeC/DAPI colocalization; type: cell-based; settings: 100 nM, 24 hours, TtT-GF cells in culture; selected cells 1-5; FIG. 4
From the text: Therefore, we used the genome and its 3D organization as an indicator to evaluate the effect of demethylating drugs on cancer cells in situ. Our approach provides a statistical measurement on the two classes of DNAs (MeC and DAPI-positive gDNA) as nuclear targets. The algorithm compares the relative distribution of signals derived from these two targets (from two color-channels), projects them onto scatter plots (FIGS. 3 and 4), and then measures the degree of similarities between the plotted signal distributions of cells within a population. This method offers a way to evaluate cellular response to external factors such as drugs and changes in culture conditions via dissimilarity assessment of relevant cellular structures. […] This method considers the strength of statistical evaluation of intra-nuclear MeC/DAPI patterns, especially valuable when cell population homogeneity is difficult to be assessed due to lack of standardized reference and sample size. FIG. 1 is a workflow of Quantitative DNA Methylation (MeC) Imaging comprised of three steps: (1) immunofluorescence with antibodies against MeC (and against a cell-type or cell-characteristic marker) and DNA counterstaining with DAPI, (2) high-resolution fluorescence microscopy to collect 2D optical sections of the cells, and (3) 3D fluorescence image analysis. […]

[2] = system: AtT20 mouse pituitary tumor cells; test: Quantitative DNA Methylation (MeC) Imaging of nuclear MeC/DAPI colocalization; type: cell-based; settings: treated AtT20 cells in culture versus untreated cells (tight colocalization); FIG. 3
From the text: Approximately 55% of the human genome is comprised of heterochromatin. […] Therefore, we used the genome and its 3D organization as an indicator to evaluate the effect of demethylating drugs on cancer cells in situ. Our approach provides a statistical measurement on the two classes of DNAs (MeC and DAPI-positive gDNA) as nuclear targets. The algorithm compares the relative distribution of signals derived from these two targets (from two color-channels), projects them onto scatter plots (FIGS. 3 and 4), and then measures the degree of similarities between the plotted signal distributions of cells within a population. This method offers a way to evaluate cellular response to external factors such as drugs and changes in culture conditions via dissimilarity assessment of relevant cellular structures. […] This method considers the strength of statistical evaluation of intra-nuclear MeC/DAPI patterns, especially valuable when cell population homogeneity is difficult to be assessed due to lack of standardized reference and sample size.
FIG. 1 is a workflow of Quantitative DNA Methylation (MeC) Imaging comprised of three steps: (1) immunofluorescence with antibodies against MeC (and against a cell-type or cell-characteristic marker) and DNA counterstaining with DAPI, (2) high-resolution fluorescence microscopy to collect 2D optical sections of the cells, and (3) 3D fluorescence image analysis. […]

Compound | response (demethylation) of the cell population, MeC vs heterochromatin/DAPI colocalization [1] | change of nuclear DNA methylation patterns (MeC vs heterochromatin/DAPI colocalization) [2]
C[C@@H](O)[C@@H]1NC(=O)[C@H](CCCCN)NC(=O)[C@@H](Cc2c[nH]c3ccccc23)NC(=O)[C@H](Cc2ccccc2)NC(=O)[C@@H](NC(=O)[C@H](N)Cc2ccccc2)CSSC[C@@H](C(=O)N[C@H](CO)[C@@H](C)O)NC1=O [octreotide] | diverse response | 
Nc1ncn([C@@H]2O[C@H](CO)[C@@H](O)[C@H]2O)c(=O)n1 [5-azacytidine] |  | large foci that are uniquely comprised of three types of signals/genomic loci

— patent publication US20100304380A1, “Quantitative DNA Methylation Imaging of Cells and Tissues” (EPILUMINA, INC., priority 2009, published 2010)
